This is an account of results in patent US20240285784A1, “PEPTIDIC CONJUGATES OF SN38 USEFUL IN THE TREATMENT OF CANCER” (FUNDACIÓ INSTITUT DE RECERCA BIOMÈDICA (IRB BARCELONA), priority 2020, published 2024).

The term IC50 denotes the concentration that gives 50% inhibition.

In test [1] the test system is Ewing sarcoma cell line A673. Nature of the test: MTS cell viability assay, Ewing sarcoma cell line A673. The class given is cell-based. The note with it: 72 h incubation, Example 9, Table 3, read-out: IC50 values against cancer cell lines. The text has this: (§1) Cancer cell lines were obtained from the repository maintained at Hospital Sant Joan de Deu (Barcelona, Spain). Cancer cell lines used in these experiment included cancer types of adult glioma (U373 and U87 cell lines), pediatric gliomas including diffuse intrinsic pontine glioma (HSJD-DIPG-007, HSJD-DIPG-011), and pediatric high-grade glioma (HSJD-GBM-001), retinoblastoma (HSJD-RBT-5, HSJD-RBT-7 and HSJD-RBT-14), Ewing sarcoma (A673), rhabdomyosarcoma (Rd and RH4) and neuroblastoma (LAN-1 and SK-N-JD cell lines and HSJD-NB-004, HSJD-NB-005 and HSJD-NB-016 patient-derived cell models). […] To add the drugs to the cells in culture, SN38-linker A-MiniAp4 (Ia) and irinotecan were prepared in culture medium from stock solutions at concentration 1 mg/mL in water. SN38 was prepared in culture medium from a stock solution at concentration 1 mg/mL in DMSO. […] Activity curves were built for adult glioma cell lines U87 (FIG. 1) and U373 (FIG. 2), pediatric gliomas including DIPG models HSJD-DIPG-007 (FIG. 3) and HSJD-DIPG-011 (FIG. 4), and pediatric high-grade glioma model HSJD-GBM-001 (FIG. 5), retinoblastoma models HSJD-RBT-5 (FIG. 6), HSJD-RBT-7 (FIG. 7) and HSJD-RBT-14 (FIG. 8), Ewing sarcoma cell line A673 (FIG. 9), rhabdomyosarcoma cell lines Rd (FIG. 10) and RH4 (FIG. 11), neuroblastoma cell lines LAN-1 (FIG. 12) and SK-N-JD (FIG. 13) and neuroblastoma patient-derived cell models HSJD-NB-004 (FIG. 14), HSJD-NB-005 (FIG. 15) and HSJD-NB-016 (FIG. 16). The established IC50 values are in Table 3.
In general terms: Formazan colour is commonly taken as a measure of viable cells.

The test system of test [2] is diffuse intrinsic pontine glioma HSJD-DIPG-007. Nature of the test: cells.
Excerpt: as §1
Cancer cell lines used in these experiments were pediatric gliomas including diffuse intrinsic pontine glioma HSJD-DIPG-007, and pediatric high-grade glioma HSJD-GBM-001. […] To add the drugs to the cells in culture, SN38-Linker A-MiniAp4 (Ia) and SN38-Linker B-THRre were prepared in culture medium from stock solutions at concentration 1 mg/mL in water. SN38 was prepared in culture medium from a stock solution at concentration 1 mg/mL in DMSO. […] Activity curves were built for cells HSJD-DIPG-007 (FIG. 20) and HSJD-GBM-001 (FIG. 21).
Cancer cell lines used in these experiments were pediatric gliomas including diffuse intrinsic pontine glioma HSJD-DIPG-007, and pediatric high-grade glioma HSJD-GBM-001. […] All compounds were prepared in culture medium from stock solutions at concentration 1 mg/mL in water. […] Activity curves were built for cells HSJD-DIPG-007 (FIG. 22) and HSJD-GBM-001 (FIG. 23).
Cancer cell line used in these experiment was HSJD-DIPG-007.

For test [3], the system named is adult glioma cell line U373. Briefly: MTS cell viability assay, adult glioma cell line U373. The class given is cell-based. Particulars: 72 h incubation, Example 9, Table 3, read-out: IC50 values against cancer cell lines.
Excerpt: as §1

Test [4] concerns rhabdomyosarcoma cell line RH4. Nature of the test: MTS cell viability assay, rhabdomyosarcoma cell line RH4. Particulars: 72 h incubation, Example 9, Table 3, read-out: IC50 values against cancer cell lines. It is filed as cell-based.
Excerpt: as §1

Test [5] relates to retinoblastoma cell model HSJD-RBT-5. Briefly: MTS cell viability assay, retinoblastoma model HSJD-RBT-5. The class given is cell-based. The note with it: 72 h incubation, Example 9, Table 3, read-out: IC50 values against cancer cell lines.
Excerpt: as §1

For test [6], the system named is retinoblastoma cell model HSJD-RBT-7. Briefly: MTS cell viability assay, retinoblastoma model HSJD-RBT-7. It is filed as cell-based. Particulars: 72 h incubation, Example 9, Table 3, read-out: IC50 values against cancer cell lines.
Excerpt: as §1

The subject of test [7] is retinoblastoma cell model HSJD-RBT-14. Nature of the test: MTS cell viability assay, retinoblastoma model HSJD-RBT-14. It is filed as cell-based. The note with it: 72 h incubation, Example 9, Table 3, read-out: IC50 values against cancer cell lines.
Excerpt: as §1

Test [8] has as its system adult glioma cell line U87. Nature of the test: MTS cell viability assay, adult glioma cell line U87. It is filed as cell-based. The note with it: 72 h incubation, Example 9, Table 3, read-out: IC50 values against cancer cell lines.
Excerpt: as §1

Test [9] concerns neuroblastoma cell line LAN-1. Nature of the test: MTS cell viability assay, neuroblastoma cell line LAN-1. The class given is cell-based. Particulars: Example 9, Table 3, read-out: IC50 values against cancer cell lines.
Excerpt: as §1

For test [10], the system named is neuroblastoma cell line SK-N-JD. Briefly: MTS cell viability assay, neuroblastoma cell line SK-N-JD. The note with it: 72 h incubation, Example 9, Table 3, read-out: IC50 values against cancer cell lines. It is filed as cell-based.
Excerpt: as §1

The subject of test [11] is neuroblastoma patient-derived cell model HSJD-NB-004. Nature of the test: MTS cell viability assay, neuroblastoma model HSJD-NB-004. It is filed as cell-based. The note with it: 72 h incubation, Example 9, Table 3, read-out: IC50 values against cancer cell lines.
Excerpt: as §1

Test [12] concerns neuroblastoma patient-derived cell model HSJD-NB-005. Briefly: MTS cell viability assay, neuroblastoma model HSJD-NB-005. The class given is cell-based. The note with it: 72 h incubation, Example 9, Table 3, read-out: IC50 values against cancer cell lines.
Excerpt: as §1

Test [13] deals with neuroblastoma patient-derived cell model HSJD-NB-016. Briefly: MTS cell viability assay, neuroblastoma model HSJD-NB-016. It is filed as cell-based. Particulars: 72 h incubation, Example 9, Table 3, read-out: IC50 values against cancer cell lines.
Excerpt: as §1

Setting [14] is: HSJD-DIPG-007, 72 h, read-out: IC50 values against cancer cell lines.

Read-outs that look alike come from different tables or passages of the source. *1 amine or outer side, *2 acyl side, *3 side chain or, on linkers, in order; H or OH if unused. Where a SMILES comes first, the peptide text is derived from it. Bridges are numbered along the chain shown (N, C = ends). [ ]: non-standard residue; d: D form. The star is where a group is joined. X1 = CCc1c2c(nc3ccc(O)cc13)-c1cc3c(c(=O)n1C2)COC(=O)[C@@]3(CC)OC(=O)CCCCn1cc(CCCC(=O)NCCCOCCOCCOCCCN*)nn1; Suc = O=C(CCC(=O)[*:2])[*:1]; Dap = NC[C@H](N)C(=O)O

On to `CCc1c2c(nc3ccc(OC(=O)N4CCC(N5CCCCC5)CC4)cc13)-c1cc3c(c(=O)n1C2)COC(=O)[C@]3(O)CC` [Irinotecan], for which the IC50 was 1440 nM in [1] (Homo sapiens); 4.75 µM in [2] (setting [14]); 3720 nM in [3] (Homo sapiens, U373 MG); 10800 nM in [4] (Rhabdomyosarcoma cell); 911 nM in [5]; 1120 nM in test [6]. Moreover, the IC50 came out at 2600 nM in [7]; 9750 nM in test [8] (Glioma cell); 7000 nM in test [9] (LAN1, 72 h incubation); 7760 nM in test [10] (Neuroblastoma cell); 9840 nM in [11]; 8200 nM in test [12]. Besides, the IC50 in [13] stood at 659 nM.

On to `CCc1c2c(nc3ccc(O)cc13)-c1cc3c(c(=O)n1C2)COC(=O)[C@]3(O)CC` [SN38, 7-ethyl-10-hydroxy-camptothecin], for which the IC50 in test [1] (Homo sapiens) turned out to be 0.462 nM; in test [2] (HSJD-DIPG-007, 72 h, read-out: IC50 values (μM)), 0.000739 µM; in test [2] (setting [14]), 0.00113 µM; in [2] (HSJD-DIPG-007, 72 h, read-out: IC50 values of compounds), 0.00151 µM; in test [3] (Homo sapiens, U373 MG), 0.869 nM; in [4] (Rhabdomyosarcoma cell), 14.8 nM. The IC50 in [5] was determined as 10.3 nM; in test [6], 0.335 nM; in test [7], 1.08 nM; in test [8] (Glioma cell) it was 4.04 nM; in test [9] (LAN1, 72 h incubation) it was 1.96 nM; in test [10] (Neuroblastoma cell), 7.55 nM. The results for the IC50 in [11], in test [12] and in test [13] were 231 nM, 12.5 nM and 12.3 nM, respectively.

On to `CCc1c2c(nc3ccc(O)cc13)-c1cc3c(c(=O)n1C2)COC(=O)[C@@]3(CC)OC(=O)CCCCn1cc(CCCC(=O)NCCCOCCOCCOCCCNC(=O)CCC(=O)N[C@H]2CNC(=O)C[C@@H](C(N)=O)NC(=O)[C@H](CC(C)C)NC(=O)[C@H](C)NC(=O)[C@H]([C@@H](C)O)NC(=O)[C@H](CCC(=O)O)NC(=O)[C@@H]3CCCN3C(=O)[C@H](C)NC(=O)[C@H](CCCCN)NC2=O)nn1` [SN38-linker A-MiniAp4 (Ia)] ({X1-Suc}-[Dap]KAPETALD-NH2; lactam 1-9), for which the IC50 in test [1] came to 3.8 nM; in [2] (read-out: IC50 values (μM) against cancer cell lines, HSJD-DIPG-007, MTS, 72 h incubation, Example 12, Table 5) it was 0.0203 µM; in test [2] (read-out: IC50 values against cancer cell lines, HSJD-DIPG-007, MTS, 72 h incubation, Example 9, Table 3) it was 0.0342 µM; in test [2] (read-out: IC50 values of compounds, HSJD-DIPG-007, MTS, 72 h incubation, Example 11, Table 4) it was 0.0107 µM; in [2] (read-out: IC50 values, HSJD-DIPG-007, MTS, 72 h incubation, Example 25, Table 8), 0.0278 µM; in [3] it was 6.65 nM. In addition, the IC50 was determined as 81.5 nM in test [4]; 92.1 nM in test [5]; 15.1 nM in [6]; 33.5 nM in test [7]; 744 nM in test [8]; 21.6 nM in [9] (72 h incubation). In addition, the IC50 worked out at 13.9 nM in test [10], 76.9 nM in [11], 51.5 nM in test [12] and 25.6 nM in [13].
